In ChEMBL document CHEMBL4373731, “Antiprotozoal alkaloid principles of the plant family Amaryllidaceae” (Bioorg Med Chem Lett, 2019):
In brackets after ≈: the same amount, converted by molar mass.

Key:
Trichomonas vaginalis [1] = experiment: Antitrichomonal activity against Trichomonas vaginalis assessed as reduction in parasite viability at 125 ug/ml relative to control; assay type: functional
Trypanosoma cruzi [2] = experiment: Antitrypanosomal activity against Trypanosoma cruzi; assay type: functional, organism-based
Leishmania donovani [3] = experiment: […] activity against Leishmania donovani; assay type: functional, organism-based
[4] = test system: Trypanosoma brucei rhodesiense; experiment: Antitrypanosomal activity against Trypanosoma brucei rhodesiense; assay type: functional, organism-based
Entamoeba histolytica = experiment: […] activity against Entamoeba histolytica; assay type: functional, organism-based
L6 = experiment: Cytotoxicity against rat L6 cells assessed as reduction in cell viability; assay type: cell-based
KB = experiment: Cytotoxicity against human KB cells assessed as reduction in cell viability; assay type: cell-based
[5] = Selectivity index, ratio of IC50 for Trypanosoma brucei rhodesiense to IC50 for human KB cells; assay type: toxicity; conditions: read-out: Ratio IC50
Trichomonas vaginalis [6] = experiment: Antiprotozoal activity against Trichomonas vaginalis assessed as reduction in […] at 250 ug/ml at relative to control; assay type: functional
Trypanosoma cruzi [7] = experiment: Antitrypanosomal activity against Trypanosoma cruzi after 48 hrs by [3H]-hypoxanthine incorporation assay; assay type: functional, organism-based
Leishmania donovani [8] = experiment: […] activity against Leishmania donovani after 48 hrs by [3H]-hypoxanthine incorporation assay; assay type: functional, organism-based

SMILES	IC50 (Trypanosoma cruzi [2])	IC50 (Leishmania donovani [3])	IC50 [4]	further results
CN1CCC2=C[C@H](O)[C@H]3OC(=O)c4cc5c(cc4[C@H]3[C@@H]21)OCO5	–	–	–	Activity (Trichomonas vaginalis [1]): 13%
CO[C@@H]1C=C[C@@]23c4cc5c(cc4CN(C[C@@H]2O)[C@H]3C1)OCO5 [(+)-HAEMANTHAMINE]	1.8 to 30 µg/mL (≈ 5.97 to 99.6 µM)	1.95 to 30 µg/mL (≈ 6.47 to 99.6 µM)	0.49 to 3.35 µg/mL (≈ 1.63 to 11.1 µM)	IC50 (Entamoeba histolytica): 0.75 µg/mL (≈ 2.49 µM)
O[C@H]1C=C[C@@]23CCN(Cc4cc5c(cc42)OCO5)[C@@H]3C1 [CRININE]	–	–	18.9 µg/mL (≈ 69.8 µM)	–
O[C@H]1CC[C@H]2[N@@]3CC[C@@]2(c2cc4c(cc2C3)OCO4)[C@H]1O	–	–	11.1 µg/mL (≈ 38.3 µM)	–
COc1cc2c(cc1OC)[C@@H]1[C@H](OC(C)=O)[C@@H](O)C[C@H]3CC[N+]([O-])(C2)[C@H]31 (some centres not stated)	> 90 µg/mL	> 90 µg/mL	73.4 µg/mL (≈ 202 µM)	IC50 (L6): > 90000 ng/mL; IC50 (KB): > 50000 ng/mL; selectivity ratio [5]: > 16
COc1c2c(cc3c1OCO3)[C@@]13CC[N@@](C2)[C@@H]1C[C@@H](OC)[C@@H]1O[C@@H]13	56 µg/mL (≈ 169 µM)	> 100 µg/mL	15 µg/mL (≈ 45.4 µM)	–
O=C(O[C@H]1C=C2CCN3Cc4cc5c(cc4[C@H]([C@@H]1O)[C@@H]23)OCO5)c1ccc([N+](=O)[O-])cc1	–	–	–	Activity (Trichomonas vaginalis [6]): 79%
CO[C@@H]1C=C[C@@]23c4cc5c(cc4[C@H](O)N(C[C@@H]2O)[C@H]3C1)OCO5	1.38 to 1.4 µg/mL (≈ 4.35 to 4.41 µM)	–	1.1 µg/mL (≈ 3.47 µM)	–
CC(=O)O[C@H]1C=C[C@@]23c4cc5c(cc4C[N@@](C[C@@H]2O)[C@H]3C1)OCO5	8.3 µg/mL (≈ 25.2 µM)	17.9 µg/mL (≈ 54.3 µM)	1.51 µg/mL (≈ 4.58 µM)	–
O=c1[nH]c2c(O)cccc2c2cc3c(cc12)OCO3	52.7 µg/mL (≈ 207 µM)	> 90 µg/mL	5.99 µg/mL (≈ 23.5 µM)	–
COc1cc2c(cc1O)CN1CCC3=CC[C@@H](O)[C@@H]2[C@@H]31 [NORPLUVINE]	–	–	90 µg/mL (≈ 329 µM)	–
CC(=O)O[C@@H]1CC=C2CCN3Cc4cc5c(cc4[C@H]1[C@@H]23)OCO5 [ACETYLCARANINE]	35.9 µg/mL (≈ 115 µM)	> 100 µg/mL	1.97 µg/mL (≈ 6.29 µM)	–
COc1c2c(cc3c1OCO3)[C@]13CC[N@](C2)[C@H]1CC=C[C@@H]3O	> 30 µg/mL	> 30 µg/mL	28.8 µg/mL (≈ 95.6 µM)	–
COc1ccc2c3c1O[C@H]1C[C@H](O)C=C[C@@]31CCN(C)C2	> 30 µg/mL	> 30 µg/mL	–	–
CO[C@@H]1C=C[C@@]23c4cc5c(cc4[C@H](O)O[C@H]2CN(C)[C@H]3C1)OCO5	–	–	–	Activity (Trichomonas vaginalis [1]): 38%
CN1CC[C@@]23C=C[C@H](O)C[C@@H]2Oc2c(O)ccc(c23)C1 [SANGUININE]	> 30 µg/mL	> 30 µg/mL	22.5 µg/mL (≈ 82.3 µM)	–
COc1cc2c(cc1OC)[C@@H]1[C@H](O)[C@@H](OC)C=C3CCN(C2)[C@H]31 [GALANTHINE]	–	–	3.1 µg/mL (≈ 9.77 µM)	–
O=C(O)c1cccnc1 [NIACIN]	> 90 µg/mL	57.4 µg/mL (≈ 466 µM)	41.2 µg/mL (≈ 335 µM)	–
CN1CCc2cc3c(cc2C(=O)Cc2ccc4c(c2C1)OCO4)OCO3	46.3 µg/mL (≈ 131 µM)	> 90 µg/mL	8.71 µg/mL (≈ 24.6 µM)	–
CC(=O)O[C@H]1[C@H]2c3cc4c(cc3CN3CCC(=C[C@@H]1OC(C)=O)[C@H]23)OCO4	1 to 8.4 µg/mL (≈ 2.69 to 22.6 µM)	–	1 to 125 µg/mL (≈ 2.69 to 337 µM)	Activity (Trichomonas vaginalis [6]): 19%
O=C(O[C@H]1[C@H]2c3cc4c(cc3CN3CCC(=C[C@@H]1O)[C@H]23)OCO4)c1ccc([N+](=O)[O-])cc1	–	–	–	Activity (Trichomonas vaginalis [6]): 58%
c1c2c(cc3c1[C@@H]1C[C@H]4[C@H](CC[C@@H]5NCC[C@@]354)O1)OCO2	–	–	18.7 µg/mL (≈ 65.5 µM)	–
COc1cc2c(cc1O)CN1CC[C@@]23C=CC(O)C[C@H]13 (some centres not stated)	> 90 µg/mL	> 90 µg/mL	61.5 µg/mL (≈ 225 µM)	–
COc1c2c(cc3c1OCO3)[C@@]13CCN(C2)[C@@H]1CC=C[C@H]3O [BUPHANAMINE]	62.9 µg/mL (≈ 209 µM)	> 100 µg/mL	28.2 µg/mL (≈ 93.6 µM)	–
COc1cc2c(cc1OC)[C@@]13C=CC(=O)C[C@@H]1[N@](CC3)C2	–	–	2.8 µg/mL (≈ 9.81 µM)	–
COc1ccc(CNCCc2ccc(O)cc2)cc1O	58.7 µg/mL (≈ 215 µM)	52.9 µg/mL (≈ 194 µM)	28.6 µg/mL (≈ 105 µM)	–
Nc1nc(N)nc(Nc2ccc([As]3SCC(CO)S3)cc2)n1 (configuration not stated) [MELARSOPROL]	0.36 µg/mL	0.2 µg/mL	0.04 µg/mL	IC50 (Trypanosoma cruzi [7]): 5.42 µg/mL; IC50 (Leishmania donovani [8]): 33.3 µg/mL

SMILES	IC50 (Trypanosoma cruzi [2])	IC50 (Leishmania donovani [3])	IC50 [4]	further results
CO[C@H]1C=C2[C@H]3CN(Cc4cc5c(cc43)OCO5)[C@H]2C[C@@H]1O [MONTANINE]	–	–	–	Activity (Trichomonas vaginalis [1]): 35%
O=C(O[C@H]1C=C2CCN3Cc4cc5c(cc4[C@H]([C@@H]1O)[C@@H]23)OCO5)c1ccccc1	–	–	–	Activity (Trichomonas vaginalis [6]): 35%
Cc1ncc([N+](=O)[O-])n1CC(O)CCl (configuration not stated) [ORNIDAZOLE]	–	–	–	IC50 (Entamoeba histolytica): 0.28 µg/mL (≈ 1.27 µM)
COc1cc(C=O)c(-c2cccc3c2N(C)CC3)cc1OC	–	–	–	Activity (Trichomonas vaginalis [1]): 28%; Activity (Trichomonas vaginalis [6]): 28%
COc1cc2c(cc1O)[C@@H]1[C@H](O)[C@@H](O)C=C3CCN(C2)[C@H]31 [PSEUDOLYCORINE]	> 30 µg/mL	> 30 µg/mL	–	–
COc1cc2c(cc1O)C[N@@]1C[C@H](O)[C@@]23C=C[C@@H](OC)C[C@H]13	88.4 µg/mL (≈ 291 µM)	> 90 µg/mL	10.2 µg/mL (≈ 33.7 µM)	–
COC1C=C[C@@]23CCN(Cc4cc5c(cc42)OCO5)[C@@H]3C1 (some centres not stated)	55.5 µg/mL (≈ 195 µM)	> 100 µg/mL	16.5 µg/mL (≈ 57.8 µM)	–
COc1cc2c[n+]3c4c(cc([O-])cc4c2cc1O)CC3	> 30 µg/mL	> 30 µg/mL	> 30 µg/mL	–
CO[C@H]1C=C[C@@]23c4cc5c(cc4CN(C[C@@H]2O)[C@H]3C1)OCO5	–	–	–	IC50 (Entamoeba histolytica): 0.53 µg/mL (≈ 1.76 µM)
O[C@H]1C=C2[C@H]3CN(Cc4cc5c(cc43)OCO5)[C@H]2C[C@@H]1O	7.1 µg/mL (≈ 24.7 µM)	> 30 µg/mL	0.7 µg/mL (≈ 2.44 µM)	–
CCCCCCCCCCCC(=O)O[C@H]1C=C2CCN3Cc4cc5c(cc4[C@H]([C@@H]1O)[C@@H]23)OCO5	–	–	–	Activity (Trichomonas vaginalis [6]): 97%
CO[C@@H]1C=C[C@@]23c4cc5c(cc4CO[C@]2(O)CN(C)[C@H]3C1)OCO5 [TAZETTINE]	–	–	–	Activity (Trichomonas vaginalis [1]): 15%
COc1cc([C@@H]2c3cc4c(cc3[C@H](O)[C@H]3COC(=O)[C@H]23)OCO4)cc(OC)c1OC [PODOFILOX]	–	–	–	IC50 (L6): 5 ng/mL (≈ 0.0121 µM); IC50 (KB): 2 ng/mL (≈ 0.00483 µM)
O[C@@H]1CC[C@H]2N3CC[C@@]2(c2cc4c(cc2C3)OCO4)[C@@H]1O	–	–	31.9 µg/mL (≈ 110 µM)	–
COc1c2c(cc3c1C(=O)O[C@H]1[C@@H]3[C@H]3C(=C[C@@H]1O)CCN3C)OCO2 [CANDIMINE]	–	–	–	Activity (Trichomonas vaginalis [6]): 60%
COc1cc2c(cc1OC)[C@@H]1[C@H](O)[C@@H](OC)[C@H](O)C3=CCN(C2)[C@H]31	–	–	3.1 µg/mL (≈ 9.3 µM)	–
c1cc2c(c3c1C[C@H]1c4cc5c(cc4CCN1C3)OCO5)OCO2 [STYLOPINE]	17.5 µg/mL (≈ 54.2 µM)	31.2 µg/mL (≈ 96.4 µM)	10.9 µg/mL (≈ 33.7 µM)	–
O=c1c2cc3c(cc2c2cccc4ccn1c42)OCO3	90 µg/mL (≈ 342 µM)	–	8.4 µg/mL (≈ 31.9 µM)	–
COc1ccc2c3c1O[C@H]1C[C@@H](O)C=C[C@@]31CCN(C)C2 [GALANTAMINE]	> 30 µg/mL	> 30 µg/mL	> 30 µg/mL	–
O=C(O[C@H]1[C@H]2c3cc4c(cc3CN3CCC(=C[C@@H]1OC(=O)c1ccccc1)[C@H]23)OCO4)c1ccccc1	–	–	–	Activity (Trichomonas vaginalis [6]): 84%
CN1CC[C@]23c4cc5c(cc4[C@@H]4C[C@H]2[C@H](CC[C@H]13)O4)OCO5	54 µg/mL (≈ 180 µM)	> 100 µg/mL	19.2 µg/mL (≈ 64.1 µM)	–
CC(=O)O[C@H]1C=C[C@@]23CCN(C)Cc4ccc(O)c(c42)O[C@H]3C1	2.3 µg/mL (≈ 7.29 µM)	–	1.1 µg/mL (≈ 3.49 µM)	–
CCCCCCCCCCCCCCCCOP(=O)([O-])OCC[N+](C)(C)C [MILTEFOSINE]	0.36 µg/mL (≈ 0.883 µM)	0.2 µg/mL (≈ 0.491 µM)	0.04 µg/mL (≈ 0.0981 µM)	–
O[C@H]1[C@H]2C(=CC[C@@H]1O)[C@H]1C[N@]2Cc2cc3c(cc21)OCO3	54.6 µg/mL (≈ 190 µM)	> 30 µg/mL	9.6 µg/mL (≈ 33.4 µM)	–
O[C@H]1[C@H]2c3cc4c(cc3CN3CCC(=C[C@@H]1O)[C@H]23)OCO4 [LYCORINE]	–	–	3.1 µg/mL (≈ 10.8 µM)	Activity (Trichomonas vaginalis [1]): 20%; IC50 (Entamoeba histolytica): 0.23 µg/mL (≈ 0.801 µM); Activity (Trichomonas vaginalis [6]): 40%
[O-][N@@+]12Cc3cc4c(cc3[C@]3(C=C[C@@H](O)C[C@@H]31)[C@@H](O)C2)OCO4	> 90 µg/mL	> 90 µg/mL	> 90 µg/mL	–
[O-]c1cc2c3c(c1)c1cc4c(cc1c[n+]3CC2)OCO4 [UNGEREMINE]	0.85 µg/mL (≈ 3.2 µM)	> 30 µg/mL	0.97 µg/mL (≈ 3.66 µM)	–
